Test results published in US4739106A, “3-amino-3-carbamoyloxyalkylacrylic acid intermediates to dihydropyridines” (Banyu Pharmaceutical Co., Ltd., priority 1982, dated 1988).
Values after ≈ are worked out from the molar mass of the structure shown.

Key:
[1] = test system: cerebral blood flow and peripheral blood flow; experiment: Separate pharmacological test: cerebral and peripheral blood flow, i.v.; type: in vivo; conditions: 1 to 10 μg/kg intravenously
[2] = Acute toxicity, i.v., DM strain male mice, up-and-down method; conditions: mouse, in vivo, iv
[3] = test system: isolated hearts of rabbits (coronary vessels); experiment: Coronary vasodilation, Langendorff method, isolated hearts of rabbits; conditions: Oryctolagus cuniculus, dosage of a sample required to increase the coronary outflow by 50%, isolated rabbit hearts, read-out: Coronary vasodilation ICD50
Description: (a) Coronary vasodilation
According to Langendorff method (O. Langendorff; Pflugers arch. ges. phisiol., 61, 291-332 (1895)), the coronary vasodilation effects were tested using isolated hearts of rabbits. The strength of coronary vasodilation was evaluated by ICD50 (g/ml) i.e. the dosage of a sample required to increase the coronary outflow by 50%.

[4] = test system: Beagle dogs; experiment: Coronary effects on anesthetized beagle dogs (CF, FAF, BP, HR), i.v.; type: in vivo, dog (beagle); conditions: for CF % increase: coronary blood flow; for CF % increase / FAF % increase / HR % increase: vs saline control; for FAF % increase: femoral artery blood flow; for HR % increase: heart rate; for BP % decrease: systemic blood pressure, vs control
Description: (c) Coronary effects on dogs
Beagle dogs (13 to 16 kg, .male.) were subjected to thoracotomy under anesthesia with sodium pentobarbital, and a probe was attached to the heart left coronary anterior descending artery of each animal, whereupon the coronary blood flow (CF) was measured by an electromagnetic flowmeter. On the other hand, a probe was attached to the exposed right femoral artery, and the femoral artery blood flow (FAF) was measured by an electromagnetic flowmeter. A canule was inserted to the left femoral artery, and the systemic blood pressure (BP) was bloody measured by a transducer.
The heart rate (HR) was measured by an electrocardiogram.
The sample solution was intravenously injected to the right femoral vein.
The coronary blood flow (CF), the femoral artery blood flow (FAF) and the heart rate (HR) were represented by a % increase upon the injection of each sample as compared with the respective control value upon the injection of a saline.
The systemic blood pressure (BP) was represented by a % decrease as compared with the control.

CCOC(=O)C1=C(C)NC(COC(N)=O)=C(C(=O)OCC)C1c1cccc([N+](=O)[O-])c1 (stereo not drawn) [(1), 2-Carbamoyloxymethyl-6-methyl-4-(m-nitrophenyl)-3,5-diethoxycarbonyl-1,4-dihydropyridine]
Increase of cerebral blood flow [1]: 40 to 50%
Increase of peripheral blood flow [1]: 40 to 50%

CCOC(=O)C1=C(C)NC(COC(=O)NC)=C(C(=O)OCC)C1c1cccc([N+](=O)[O-])c1 (stereo not drawn) [(2)]
LD50 [2]: 71 mg/kg
EC50 [3]: 0.32 µg/mL (≈ 0.715 µM)

CNC(=O)OCC1=C(C(=O)OC)C(c2cccc([N+](=O)[O-])c2)C(C(=O)OC)=C(C)N1 (stereo not drawn) [(4)]
LD50 [2]: 84 mg/kg
EC50 [3]: 0.36 µg/mL (≈ 0.858 µM)

CCOC(=O)C1=C(C)NC(COC(N)=O)=C(C(=O)OCC)C1c1ccccc1[N+](=O)[O-] (stereo not drawn) [(5), 2-Carbamoyloxymethyl-6-methyl-4-(o-nitrophenyl)-3,5-diethoxycarbonyl-1,4-dihydropyridine]
CF % increase ([4]; 1 μg/kg i.v.): 13%
CF % increase ([4]; 3 μg/kg i.v.): 38%
CF % increase ([4]; 10 μg/kg i.v.): 86%
FAF % increase ([4]; 1 μg/kg i.v.): 8%
FAF % increase ([4]; 3 μg/kg i.v.): 35%
FAF % increase ([4]; 10 μg/kg i.v.): 82%
HR % increase ([4]; 1 μg/kg i.v.): 0%
HR % increase ([4]; 3 μg/kg i.v.): 0%
HR % increase ([4]; 10 μg/kg i.v.): -10%
BP % decrease ([4]; 1 μg/kg i.v.): 0%
BP % decrease ([4]; 3 μg/kg i.v.): 2%
BP % decrease ([4]; 10 μg/kg i.v.): 22%

CCCOCCOC(=O)C1=C(C)NC(COC(N)=O)=C(C(=O)OCCOCCC)C1c1cccc([N+](=O)[O-])c1 (stereo not drawn) [(12), 2-Carbamoyloxymethyl-6-methyl-4-(m-nitrophenyl)-3,5-bis[(β-propoxyethoxy)carbonyl]-1,4-dihydropyridine]
Increase of cerebral blood flow [1]: 40 to 50%
Increase of peripheral blood flow [1]: 40 to 50%

CCCOCCOC(=O)C1=C(C)NC(COC(=O)NC)=C(C(=O)OCCOCCC)C1c1cccc([N+](=O)[O-])c1 (stereo not drawn) [(13), 2-N--Methylcarbamoyloxymethyl,-6-methyl-4-(m-nitrophenyl)-3,5-bis[(β-propoxyethoxy)carbonyl]-1,4-dihydropyridine]
Increase of cerebral blood flow [1]: 40 to 50%
Increase of peripheral blood flow [1]: 40 to 50%

COC(=O)C1=C(COC(N)=O)NC(C)=C(C(=O)OCCN(C)Cc2ccccc2)C1c1cccc([N+](=O)[O-])c1 (stereo not drawn) [(15), 2-Carbamoyloxymethyl-6-methyl-4-(m-nitrophenyl)-3-methoxycarbonyl-5-(β-N--methylbenzylaminoethoxy)carbonyl-1,4-dihydropyridine]
LD50 [2]: 200 mg/kg

COC(=O)C1=C(COC(N)=O)NC(C)=C(C(=O)OCCN2CCOCC2)C1c1cccc([N+](=O)[O-])c1 (stereo not drawn) [(18), 2-Carbamoyloxymethyl-6-methyl-4-(m-nitrophenyl)-3-methoxycarbonyl-5-(β-morpholinoethoxy)carbonyl-1,4-dihydropyridine]
LD50 [2]: 200 mg/kg
